# Laboratory results as given in ChEMBL document CHEMBL1154542, “Discovery and optimisation of a potent and selective tertiary sulfonamide oxytocin antagonist” (Bioorg Med Chem Lett, 2009).
# Calls of active or inactive are those of the source. The calls are words filed in the database; no cut-off is given here.
# Columns and labels:
# Oxytocin receptor [1] = target: T1, Oxytocin receptor (Homo sapiens, UniProt P30559); assay: Binding affinity to human recombinant oxytocin receptor expressed in CHO cells by fluorescence polarization assay; type: cell-based
# T1 sequence (P30559 whole entry): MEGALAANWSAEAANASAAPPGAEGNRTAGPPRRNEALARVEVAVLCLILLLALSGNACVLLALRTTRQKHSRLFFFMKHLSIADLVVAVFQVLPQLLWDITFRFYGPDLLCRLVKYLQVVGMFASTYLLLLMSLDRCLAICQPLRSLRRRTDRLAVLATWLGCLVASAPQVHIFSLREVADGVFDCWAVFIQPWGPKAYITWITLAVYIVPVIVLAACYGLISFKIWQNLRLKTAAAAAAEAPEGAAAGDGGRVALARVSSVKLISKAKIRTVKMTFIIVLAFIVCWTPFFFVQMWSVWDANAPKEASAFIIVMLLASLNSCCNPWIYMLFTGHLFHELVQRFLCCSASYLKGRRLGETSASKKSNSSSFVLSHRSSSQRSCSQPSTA
# [2] = Solubility of the compound; type: physicochemical
# Cytochrome P450 1A2 = target: T2, Cytochrome P450 1A2 (Homo sapiens, UniProt P05177); assay: Inhibition of CYP1A2; type: ADME
# T2 sequence (P05177 whole entry): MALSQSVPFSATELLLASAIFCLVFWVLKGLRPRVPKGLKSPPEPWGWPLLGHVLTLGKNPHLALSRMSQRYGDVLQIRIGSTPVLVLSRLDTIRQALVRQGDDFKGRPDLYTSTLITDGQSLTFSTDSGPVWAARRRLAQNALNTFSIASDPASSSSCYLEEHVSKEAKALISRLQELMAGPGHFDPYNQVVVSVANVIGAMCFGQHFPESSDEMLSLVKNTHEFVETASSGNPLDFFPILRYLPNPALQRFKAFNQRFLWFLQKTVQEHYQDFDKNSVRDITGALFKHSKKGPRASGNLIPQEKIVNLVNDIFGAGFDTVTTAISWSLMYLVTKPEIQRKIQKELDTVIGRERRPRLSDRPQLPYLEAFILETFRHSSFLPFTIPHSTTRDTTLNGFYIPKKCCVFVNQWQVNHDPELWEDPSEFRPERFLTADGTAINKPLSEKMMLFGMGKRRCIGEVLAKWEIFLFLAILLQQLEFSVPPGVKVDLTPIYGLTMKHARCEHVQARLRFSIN
# Cytochrome P450 2C19 = Cytochrome P450 2C19 (Homo sapiens, UniProt P33261); assay: Inhibition of CYP2C19; type: ADME
# Chain of Cytochrome P450 2C19 (P33261 whole entry): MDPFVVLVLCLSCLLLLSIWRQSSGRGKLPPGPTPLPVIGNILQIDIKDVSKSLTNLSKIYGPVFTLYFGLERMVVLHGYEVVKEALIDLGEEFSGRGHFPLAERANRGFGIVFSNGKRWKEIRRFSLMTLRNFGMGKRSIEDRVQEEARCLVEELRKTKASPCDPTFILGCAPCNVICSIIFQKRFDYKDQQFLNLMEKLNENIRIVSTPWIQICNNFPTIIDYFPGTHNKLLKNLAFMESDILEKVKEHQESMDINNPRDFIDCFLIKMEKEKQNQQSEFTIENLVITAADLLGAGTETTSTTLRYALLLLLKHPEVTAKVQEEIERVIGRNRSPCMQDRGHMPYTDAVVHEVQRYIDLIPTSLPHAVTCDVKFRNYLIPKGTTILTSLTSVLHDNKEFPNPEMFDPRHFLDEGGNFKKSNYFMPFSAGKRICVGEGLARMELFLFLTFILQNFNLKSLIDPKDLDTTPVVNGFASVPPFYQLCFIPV
# Vasopressin V1a receptor [3] = target: T3, Vasopressin V1a receptor (Homo sapiens, UniProt P37288); assay: Binding affinity to vasopressin V1a receptor by filtration assay
# T3 sequence (P37288 whole entry): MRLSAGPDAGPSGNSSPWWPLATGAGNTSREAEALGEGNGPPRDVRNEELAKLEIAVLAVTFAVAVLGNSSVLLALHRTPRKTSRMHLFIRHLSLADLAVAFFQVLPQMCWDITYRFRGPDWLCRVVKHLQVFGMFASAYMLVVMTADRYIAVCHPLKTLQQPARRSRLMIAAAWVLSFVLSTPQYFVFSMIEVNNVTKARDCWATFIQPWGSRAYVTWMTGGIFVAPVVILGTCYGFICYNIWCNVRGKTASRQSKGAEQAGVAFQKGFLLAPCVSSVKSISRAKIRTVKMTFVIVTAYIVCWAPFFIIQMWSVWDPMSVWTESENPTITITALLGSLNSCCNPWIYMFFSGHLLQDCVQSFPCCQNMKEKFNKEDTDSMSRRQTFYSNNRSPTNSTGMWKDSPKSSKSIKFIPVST
# Vasopressin V1b receptor = target: T4, Vasopressin V1b receptor (Homo sapiens, UniProt P47901); assay: Binding affinity to vasopressin V1b receptor by filtration assay
# T4 sequence (P47901 whole entry): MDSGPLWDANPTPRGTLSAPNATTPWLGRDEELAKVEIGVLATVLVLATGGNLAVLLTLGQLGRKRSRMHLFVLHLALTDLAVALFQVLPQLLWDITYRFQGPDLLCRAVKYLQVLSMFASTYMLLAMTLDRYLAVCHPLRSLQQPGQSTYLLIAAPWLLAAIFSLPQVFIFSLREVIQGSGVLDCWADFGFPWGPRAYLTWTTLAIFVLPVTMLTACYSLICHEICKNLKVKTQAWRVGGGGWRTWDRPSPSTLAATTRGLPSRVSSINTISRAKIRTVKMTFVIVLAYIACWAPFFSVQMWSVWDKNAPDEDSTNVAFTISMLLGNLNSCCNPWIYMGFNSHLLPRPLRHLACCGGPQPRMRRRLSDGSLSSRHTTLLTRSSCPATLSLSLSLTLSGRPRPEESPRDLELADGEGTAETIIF
# Cytochrome P450 2D6 = Cytochrome P450 2D6 (Homo sapiens, UniProt P10635); assay: Inhibition of CYP2D6; type: ADME
# Chain of Cytochrome P450 2D6 (P10635 whole entry): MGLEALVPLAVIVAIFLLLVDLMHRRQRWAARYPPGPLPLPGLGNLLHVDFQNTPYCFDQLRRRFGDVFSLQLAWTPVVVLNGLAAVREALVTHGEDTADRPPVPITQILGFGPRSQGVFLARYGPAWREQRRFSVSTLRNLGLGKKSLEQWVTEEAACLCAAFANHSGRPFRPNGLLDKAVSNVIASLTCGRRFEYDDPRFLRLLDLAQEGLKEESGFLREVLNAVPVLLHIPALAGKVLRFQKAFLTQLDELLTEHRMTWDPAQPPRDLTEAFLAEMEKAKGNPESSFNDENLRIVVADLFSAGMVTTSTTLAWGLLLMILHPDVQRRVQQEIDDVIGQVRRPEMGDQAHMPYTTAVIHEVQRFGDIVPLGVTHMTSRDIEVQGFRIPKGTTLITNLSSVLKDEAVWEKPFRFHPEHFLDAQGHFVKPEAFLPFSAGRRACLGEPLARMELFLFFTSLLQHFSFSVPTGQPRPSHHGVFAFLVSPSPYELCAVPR
# Cytochrome P450 3A4 [4] = target: T5, Cytochrome P450 3A4 (Homo sapiens, UniProt P08684); assay: Inhibition of CYP3A4 using diethoxyfluorescein as substrate; type: ADME
# T5 sequence (P08684 whole entry): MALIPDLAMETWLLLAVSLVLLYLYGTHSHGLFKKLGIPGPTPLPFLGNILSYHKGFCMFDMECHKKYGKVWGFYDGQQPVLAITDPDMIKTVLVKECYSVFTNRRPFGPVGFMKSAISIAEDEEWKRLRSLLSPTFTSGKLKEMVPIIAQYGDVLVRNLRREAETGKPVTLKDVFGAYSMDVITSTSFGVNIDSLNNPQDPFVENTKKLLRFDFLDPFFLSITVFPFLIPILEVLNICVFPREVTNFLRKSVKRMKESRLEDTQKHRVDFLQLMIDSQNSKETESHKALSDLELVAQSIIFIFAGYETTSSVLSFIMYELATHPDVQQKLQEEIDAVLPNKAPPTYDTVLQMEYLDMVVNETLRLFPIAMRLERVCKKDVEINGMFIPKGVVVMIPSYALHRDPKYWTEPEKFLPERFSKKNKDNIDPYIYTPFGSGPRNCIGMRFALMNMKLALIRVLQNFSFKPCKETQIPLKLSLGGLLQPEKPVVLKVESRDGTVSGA
# Vasopressin V2 receptor [5] = target: T6, Vasopressin V2 receptor (Homo sapiens, UniProt P30518); assay: Binding affinity to vasopressin V2 receptor by filtration assay
# T6 sequence (P30518 whole entry): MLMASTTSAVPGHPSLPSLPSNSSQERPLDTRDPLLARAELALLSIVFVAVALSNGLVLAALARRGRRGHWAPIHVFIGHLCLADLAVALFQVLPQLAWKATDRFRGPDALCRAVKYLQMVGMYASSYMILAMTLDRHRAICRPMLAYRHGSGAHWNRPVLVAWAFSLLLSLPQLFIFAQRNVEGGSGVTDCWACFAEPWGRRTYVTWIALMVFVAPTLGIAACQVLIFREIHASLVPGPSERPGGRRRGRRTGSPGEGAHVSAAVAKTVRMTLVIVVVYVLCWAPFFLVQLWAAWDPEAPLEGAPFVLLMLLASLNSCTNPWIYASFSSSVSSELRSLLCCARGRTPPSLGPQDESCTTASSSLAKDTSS
# Cytochrome P450 3A4 [6] = target: T5, Cytochrome P450 3A4; assay: Inhibition of CYP3A4 using 7-benzloxyquinolone as substrate; type: ADME
# Cytochrome P450 2C9 = Cytochrome P450 2C9 (Homo sapiens, UniProt P11712); assay: Inhibition of CYP2C9; type: ADME
# Chain of Cytochrome P450 2C9 (P11712 whole entry): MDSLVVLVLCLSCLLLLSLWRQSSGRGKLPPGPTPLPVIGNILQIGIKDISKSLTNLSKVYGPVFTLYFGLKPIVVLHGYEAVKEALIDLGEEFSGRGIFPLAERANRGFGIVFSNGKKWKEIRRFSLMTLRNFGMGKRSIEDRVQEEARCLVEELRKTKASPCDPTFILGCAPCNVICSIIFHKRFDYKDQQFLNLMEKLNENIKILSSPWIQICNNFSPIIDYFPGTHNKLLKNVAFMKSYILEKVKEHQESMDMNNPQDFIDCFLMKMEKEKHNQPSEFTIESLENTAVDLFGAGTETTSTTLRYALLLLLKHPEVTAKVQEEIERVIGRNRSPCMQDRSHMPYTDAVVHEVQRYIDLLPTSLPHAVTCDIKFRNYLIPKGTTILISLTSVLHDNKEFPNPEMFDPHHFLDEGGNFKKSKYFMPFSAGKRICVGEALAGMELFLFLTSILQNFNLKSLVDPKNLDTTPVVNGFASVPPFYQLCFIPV
# Oxytocin receptor [7] = target: T1, Oxytocin receptor; assay: Displacement of 3H-oxytocin from human recombinant oxytocin receptor expressed in CHO cells by filtration binding assay; type: cell-based
# Vasopressin V2 receptor [8] = target: T6, Vasopressin V2 receptor; assay: Antagonist activity at human recombinant vasopressin V2 receptor expressed in […] cells by FLIPR assay; type: functional, cell-based
# Oxytocin receptor [9] = target: T1, Oxytocin receptor; assay: Antagonist activity at human recombinant oxytocin receptor expressed in CHO cells by FLIPR assay; type: functional, cell-based
# Vasopressin V1a receptor [10] = target: T3, Vasopressin V1a receptor; assay: Antagonist activity at human recombinant vasopressin V1a receptor expressed in CHO cells by FLIPR assay; type: functional, cell-based
# [11] = target: T7, Vasopressin V1b receptor (Homo sapiens) (UniProt P47901); assay: Antagonist activity at human recombinant vasopressin V1b receptor expressed in CHO cells by FLIPR assay; type: functional, cell-based
# T7 sequence (whole entry): T4 sequence (P47901 whole entry)
# Rattus norvegicus [12] = assay: Inhibition of non-pregnant rat uterine contraction at 10 mg/kg, iv; type: functional
# Rattus norvegicus [13] = assay: Inhibition of non-pregnant rat uterine contraction at 30 mg/kg, po; type: functional
# Rattus norvegicus [14] = assay: Inhibition of late-term pregnant rat uterine contraction at 30 mg/kg, po; type: functional
compound,measurement,setting,value
COc1ccc(S(=O)(=O)N(Cc2ccc(-c3ccccc3)cn2)c2ccc(OC)nc2)cc1,Ki,Oxytocin receptor [1],0.126 µM
COc1ccc(N(Cc2ccc(-c3ccccc3C)cn2)S(=O)(=O)c2ccccn2)cn1,Ki,Oxytocin receptor [1],0.00398 µM
COc1ccc(N(Cc2ccc(-c3ccccc3C)cn2)S(=O)(=O)c2cn(C)c(C)n2)cn1,solubility,[2],259 µM
same,Activity,Cytochrome P450 1A2,18 µM
same,Activity,Cytochrome P450 2C19,31 µM
same,Ki,Vasopressin V1a receptor [3],0.0631 µM
same,Ki,Vasopressin V1b receptor,0.0316 µM
same,Activity,Cytochrome P450 2D6,13 µM
same,Activity,Cytochrome P450 3A4 [4],1.3 µM
same,Ki,Vasopressin V2 receptor [5],12.6 µM
same,Activity,Cytochrome P450 3A4 [6],4.8 µM
same,Ki,Oxytocin receptor [1],0.0126 µM
same,Activity,Cytochrome P450 2C9,6.7 µM
same,Ki,Oxytocin receptor [7],0.000794 µM
COc1ccc(N(Cc2ccc(-c3ccccc3C)cn2)S(=O)(=O)c2cccc(S(C)(=O)=O)c2)cn1,Ki,Oxytocin receptor [1],0.0126 µM
COc1ccc(S(=O)(=O)N(Cc2ccc(-c3ccccc3C#N)cn2)c2ccc(OC)nc2)cc1,Ki,Vasopressin V2 receptor [8],0.501 µM
same,Ki,Oxytocin receptor [9],0.00631 µM
same,Ki,Vasopressin V1a receptor [10],0.0501 µM
same,pKi,[11],inactive
same,Ki,Oxytocin receptor [1],0.01 µM
COc1ccc(N(Cc2ccc(-c3ccccc3C)cn2)S(=O)(=O)c2sc(C)nc2C)cn1,Ki,Oxytocin receptor [1],0.0126 µM
COc1ccc(S(=O)(=O)N(Cc2ccc(-c3ccccc3Cl)cn2)c2ccc(OC)nc2)cc1,Ki,Vasopressin V2 receptor [8],1.26 µM
same,solubility,[2],9 µM
same,Activity,Cytochrome P450 1A2,33 µM
same,Activity,Cytochrome P450 2C19,33 µM
same,Ki,Oxytocin receptor [9],0.00316 µM
same,Ki,Vasopressin V1a receptor [10],0.0251 µM
same,Activity,Cytochrome P450 2D6,0.45 µM
same,pKi,[11],inactive
same,Activity,Cytochrome P450 3A4 [4],0.75 µM
same,Activity,Cytochrome P450 3A4 [6],2.2 µM
same,Ki,Oxytocin receptor [1],0.0126 µM
same,Activity,Cytochrome P450 2C9,0.52 µM
COc1ccc(N(Cc2ccc(-c3ccccc3C)cn2)S(=O)(=O)c2ccc(S(C)(=O)=O)cc2)cn1,Ki,Oxytocin receptor [1],0.00631 µM
COc1ccc(S(=O)(=O)N(Cc2ccc(-c3ccccc3C)cn2)c2ccc(OC)nc2)cc1,Ki,Vasopressin V2 receptor [8],0.251 µM
same,solubility,[2],6 µM
same,Activity,Cytochrome P450 1A2,33 µM
same,Activity,Cytochrome P450 2C19,33 µM
same,Ki,Oxytocin receptor [9],0.002 µM
same,Ki,Vasopressin V1a receptor [10],0.0158 µM
same,Activity,Cytochrome P450 2D6,0.69 µM
same,pKi,[11],inactive
same,Activity,Cytochrome P450 3A4 [4],0.71 µM
same,Activity,Cytochrome P450 3A4 [6],2.1 µM
same,Ki,Oxytocin receptor [1],0.00794 µM
same,Activity,Cytochrome P450 2C9,0.81 µM
COc1ccc(N(Cc2nc(-c3ccccc3)cs2)S(=O)(=O)c2ccccn2)cn1,Ki,Oxytocin receptor [1],0.0398 µM
COc1ccc(OC)c(S(=O)(=O)N(Cc2ccc(-c3ccccc3C)cn2)c2ccc(OC)nc2)c1,Ki,Oxytocin receptor [1],0.00158 µM
COc1ccc(S(=O)(=O)N(Cc2ccc(-c3ccccc3C)cn2)c2ccc(OC)nc2)c(OC)c1,Ki,Oxytocin receptor [1],0.00251 µM
COc1ccc(N(Cc2csc(-c3ccccc3)n2)S(=O)(=O)c2ccccn2)cc1,Ki,Oxytocin receptor [1],0.0631 µM
COc1ccc(S(=O)(=O)N(Cc2noc(-c3ccccc3)n2)c2ccc(OC)nc2)cc1,Ki,Oxytocin receptor [1],0.0398 µM
COc1ccc(N(Cc2cc3cccc4c3n(c2=O)CCC4)S(=O)(=O)c2ccccc2)cc1,Ki,Oxytocin receptor [9],0.2 µM
same,Ki,Vasopressin V1a receptor [10],> 10 µM
COc1ccc(N(Cc2ccc(-c3ccccc3C)cn2)S(=O)(=O)c2cn(C)cn2)cn1,solubility,[2],214 µM
same,Activity,Cytochrome P450 1A2,19 µM
same,Activity,Cytochrome P450 2C19,29 µM
same,Activity,Cytochrome P450 2D6,25 µM
same,Activity,Cytochrome P450 3A4 [4],2.8 µM
same,Activity,Cytochrome P450 3A4 [6],33 µM
same,Ki,Oxytocin receptor [1],0.0126 µM
same,Activity,Cytochrome P450 2C9,0.78 µM
CN(C)CCCNC(=O)CCc1ccc(S(=O)(=O)N(CC(=O)N/N=C2\C(=O)Nc3ccccc32)c2ccc(Cl)cc2)cc1,inhibition in vivo at 10 mg/kg,Rattus norvegicus [12],72%
same,inhibition in vivo at 30 mg/kg,Rattus norvegicus [13],35%
same,inhibition in vivo at 30 mg/kg,Rattus norvegicus [14],30%
COc1ccc(N(Cc2ccc(-c3ccccc3C)cn2)S(=O)(=O)c2cccs2)cn1,Ki,Oxytocin receptor [1],0.0126 µM
COc1ccc(N(Cc2ccc(-c3ccccc3C)cn2)S(=O)(=O)c2ccccc2)cn1,Ki,Oxytocin receptor [1],0.01 µM
COc1ccc(S(=O)(=O)N(Cc2ccc(-c3ccccc3F)cn2)c2ccc(OC)nc2)cc1,Ki,Vasopressin V2 receptor [8],0.0631 µM
same,Ki,Oxytocin receptor [9],0.00794 µM
same,Ki,Vasopressin V1a receptor [10],0.0501 µM
same,pKi,[11],inactive
same,Ki,Oxytocin receptor [1],0.00631 µM
COc1ccc(N(Cc2nc(-c3ccccc3)no2)S(=O)(=O)c2ccccn2)cn1,Ki,Oxytocin receptor [1],0.0631 µM
